Test results taken from PubChem BioAssay AID1259407 (Chemical Carcinogenesis Research Information System (CCRIS), 2018).
Active and inactive are the calls of the source. The rule behind the calls is not given here.

Test system: CCRIS mutagenicity, Ames/micronucleus/aberration tests
Assay: CCRIS mutagenicity studies
[1] = Test System: AMES SALMONELLA TYPHIMURIUM, Strain/Indicator: TA98, Metabolic Activation: NONE, Method: STANDARD PLATE
[2] = Test System: AMES SALMONELLA TYPHIMURIUM, Strain/Indicator: TA100, Metabolic Activation: NONE, Method: STANDARD PLATE
[3] = Test System: AMES SALMONELLA TYPHIMURIUM, Strain/Indicator: TA1535, Metabolic Activation: NONE, Method: PREINCUBATION
[4] = Test System: AMES SALMONELLA TYPHIMURIUM, Strain/Indicator: TA1537, Metabolic Activation: NONE, Method: PREINCUBATION
[5] = Test System: AMES SALMONELLA TYPHIMURIUM, Strain/Indicator: TA1538, Metabolic Activation: NONE, Method: PREINCUBATION
[6] = Test System: AMES SALMONELLA TYPHIMURIUM, Strain/Indicator: TA98, Metabolic Activation: NONE, Method: PREINCUBATION
[7] = Test System: AMES SALMONELLA TYPHIMURIUM, Strain/Indicator: TA100, Metabolic Activation: NONE, Method: PREINCUBATION

Q: How did the mutagenic call (Test System: AMES SALMONELLA TYPHIMURIUM, Strain/Indicator: TA97, Metabolic Activation: NONE, Method: STANDARD PLATE) turn out when c1ccc2nc3ccccc3cc2c1 was run?
A: inactive; negative

Q: And the mutagenic call (Test System: AMES SALMONELLA TYPHIMURIUM, Strain/Indicator: TA97, Metabolic Activation: RAT, LIVER, S-9, AROCLOR 1254, Method: STANDARD PLATE)?
A: inactive; negative

Q: What about the mutagenic call [1] of the same compound?
A: inactive; negative

Q: And the mutagenic call (Test System: AMES SALMONELLA TYPHIMURIUM, Strain/Indicator: TA98, Metabolic Activation: RAT, LIVER, S-9, AROCLOR 1254, Method: STANDARD PLATE)?
A: inactive; negative

Q: And the mutagenic call [2]?
A: inactive; negative

Q: And the mutagenic call (Test System: AMES SALMONELLA TYPHIMURIUM, Strain/Indicator: TA100, Metabolic Activation: RAT, LIVER, S-9, AROCLOR 1254, Method: STANDARD PLATE)?
A: inactive; negative

Q: What about the mutagenic call [3] of the same compound?
A: inactive; negative

Q: And the mutagenic call (Test System: AMES SALMONELLA TYPHIMURIUM, Strain/Indicator: TA1535, Metabolic Activation: RAT, LIVER, S-9, TETRACHLOROBIPHENYL, Method: PREINCUBATION)?
A: inactive; negative

Q: And the mutagenic call [4]?
A: inactive; negative

Q: What about the mutagenic call (Test System: AMES SALMONELLA TYPHIMURIUM, Strain/Indicator: TA1537, Metabolic Activation: RAT, LIVER, S-9, TETRACHLOROBIPHENYL, Method: PREINCUBATION) of the same compound?
A: active; positive

Q: And the mutagenic call [5]?
A: inactive; negative

Q: What about the mutagenic call (Test System: AMES SALMONELLA TYPHIMURIUM, Strain/Indicator: TA1538, Metabolic Activation: RAT, LIVER, S-9, TETRACHLOROBIPHENYL, Method: PREINCUBATION) of the same compound?
A: inactive; negative

Q: Which mutagenic call (End Point: IN VITRO MICRONUCLEUS, Test System: MOUSE LYMPHOMA L5178Y CELLS, Metabolic Activation: NONE) does the source give for CCCCOS(=O)(=O)c1ccc(C)cc1 here?
A: active; positive

Q: What about the mutagenic call (End Point: IN VITRO MICRONUCLEUS, Test System: MOUSE LYMPHOMA L5178Y CELLS, Metabolic Activation: RAT, LIVER, S-9) of the same compound?
A: inactive; negative

Q: And the mutagenic call (End Point: In vitro micronucleus, Test System: Chinese Hamster Ovary (CHO-WBL) cells, Metabolic Activation: None)?
A: active; positive (p<0.01)

Q: And the mutagenic call [2]?
A: active; positive

Q: And the mutagenic call (Test System: AMES SALMONELLA TYPHIMURIUM, Strain/Indicator: TA100, Metabolic Activation: RAT, LIVER, S-9, Method: STANDARD PLATE)?
A: active; positive

Q: How did the mutagenic call [6] turn out when CC(C)(c1ccccc1)c1ccc(O)cc1 was run?
A: inactive; negative

Q: What about the mutagenic call (Test System: AMES SALMONELLA TYPHIMURIUM, Strain/Indicator: TA98, Metabolic Activation: RAT LIVER S-9, PHENOBARBITAL AND BETA-NAPHTHOFLAVONE, Method: PREINCUBATION) of the same compound?
A: inactive; negative

Q: And the mutagenic call [7]?
A: inactive; negative

Q: What about the mutagenic call (Test System: AMES SALMONELLA TYPHIMURIUM, Strain/Indicator: TA100, Metabolic Activation: RAT LIVER S-9, PHENOBARBITAL AND BETA-NAPHTHOFLAVONE, Method: PREINCUBATION) of the same compound?
A: inactive; negative

Q: What about the mutagenic call [3] of the same compound?
A: inactive; negative

Q: What about the mutagenic call (Test System: AMES SALMONELLA TYPHIMURIUM, Strain/Indicator: TA1535, Metabolic Activation: RAT LIVER S-9, PHENOBARBITAL AND BETA-NAPHTHOFLAVONE, Method: PREINCUBATION) of the same compound?
A: inactive; negative

Q: And the mutagenic call [4]?
A: inactive; negative

Q: And the mutagenic call (Test System: AMES SALMONELLA TYPHIMURIUM, Strain/Indicator: TA1537, Metabolic Activation: RAT LIVER S-9, PHENOBARBITAL AND BETA-NAPHTHOFLAVONE, Method: PREINCUBATION)?
A: inactive; negative

Q: And the mutagenic call [5]?
A: inactive; negative

Q: What about the mutagenic call (Test System: AMES SALMONELLA TYPHIMURIUM, Strain/Indicator: TA1538, Metabolic Activation: RAT LIVER S-9, PHENOBARBITAL AND BETA-NAPHTHOFLAVONE, Method: PREINCUBATION) of the same compound?
A: inactive; negative

Q: What about the mutagenic call (Test System: E.COLI, Strain/Indicator: WP2UVRA, Metabolic Activation: NONE, Method: PREINCUBATION) of the same compound?
A: inactive; negative

Q: What about the mutagenic call (Test System: E.COLI, Strain/Indicator: WP2UVRA, Metabolic Activation: RAT LIVER S-9, PHENOBARBITAL AND BETA-NAPHTHOFLAVONE, Method: PREINCUBATION) of the same compound?
A: inactive; negative

Q: O=S(=O)(O)c1cc(S(=O)(=O)O)c2c(N=Nc3ccc(S(=O)(=O)O)c4ccccc34)c(O)ccc2c1 was tested. Which mutagenic call (End Point: IN VIVO MICRONUCLEUS, Test System: BONE MARROW POLYCHROMATIC ERYTHROCYTES, Species: MOUSE, Strain/Sex: DDY/MALE, Route: IP) did it give?
A: inactive; negative

Q: What about the mutagenic call [6] of the same compound?
A: inactive; negative

Q: What about the mutagenic call (Test System: AMES SALMONELLA TYPHIMURIUM, Strain/Indicator: TA98, Metabolic Activation: S-9, Method: PREINCUBATION) of the same compound?
A: inactive; negative

Q: What about the mutagenic call [7] of the same compound?
A: inactive; negative

Q: What about the mutagenic call (Test System: AMES SALMONELLA TYPHIMURIUM, Strain/Indicator: TA100, Metabolic Activation: S-9, Method: PREINCUBATION) of the same compound?
A: inactive; negative

Q: And the mutagenic call (Test System: Mouse lymphoma, Strain/Indicator: L5178Y (tk+/tk-), Metabolic Activation: None, Method: Suspension/plate)?
A: inactive; negative

Q: What about the mutagenic call (Test System: Mouse lymphoma, Strain/Indicator: L5178Y (tk+/tk-), Metabolic Activation: Rat, Liver, S-9, Aroclor 1254, Method: Suspension/plate) of the same compound?
A: inactive; inconclusive (previous evaluation negative)

Q: And the mutagenic call (Test System: UDS RODENT HEPATOCYTES, Strain/Indicator: THY INCORP, Metabolic Activation: NONE, Method: AUTORADIOGRAPHY)?
A: inactive; negative

Q: How did the mutagenic call [2] turn out when CC#CC(OC(=O)NC1CCCCC1)(c1ccccc1)c1ccccc1 was run?
A: active; positive

Q: Cc1c(/C=N/OCc2ccc(Cl)cc2)c2cc([N+](=O)[O-])ccc2n1Cc1ccccc1 was tested. Which mutagenic call [1] did it give?
A: inactive; negative

Q: And the mutagenic call (Test System: AMES SALMONELLA TYPHIMURIUM, Strain/Indicator: TA98, Metabolic Activation: RAT, LIVER, S-9, PHENOBARBITAL AND BETA-NAPHTHOFLAVONE, Method: STANDARD PLATE)?
A: inactive; negative

Q: And the mutagenic call [2]?
A: inactive; negative

Q: What about the mutagenic call (Test System: AMES SALMONELLA TYPHIMURIUM, Strain/Indicator: TA100, Metabolic Activation: RAT, LIVER, S-9, PHENOBARBITAL AND BETA-NAPHTHOFLAVONE, Method: STANDARD PLATE) of the same compound?
A: inactive; negative

Q: Which results are given for OCCCCl?
A: mutagenic call (Test System: AMES SALMONELLA TYPHIMURIUM, Strain/Indicator: TA97, Metabolic Activation: HAMSTER, LIVER, S-9, AROCLOR 1254 (10%), Method: PREINCUBATION): inactive; negative; mutagenic call (Test System: AMES SALMONELLA TYPHIMURIUM, Strain/Indicator: TA97, Metabolic Activation: NONE, Method: PREINCUBATION): inactive; negative; mutagenic call (Test System: AMES SALMONELLA TYPHIMURIUM, Strain/Indicator: TA97, Metabolic Activation: RAT, LIVER, S-9, AROCLOR 1254 (10%), Method: PREINCUBATION): inactive; negative; mutagenic call (Test System: AMES SALMONELLA TYPHIMURIUM, Strain/Indicator: TA98, Metabolic Activation: HAMSTER, LIVER, S-9, AROCLOR 1254 (10%), Method: PREINCUBATION): inactive; negative; mutagenic call [6]: inactive; negative; mutagenic call (Test System: AMES SALMONELLA TYPHIMURIUM, Strain/Indicator: TA98, Metabolic Activation: RAT, LIVER, S-9, AROCLOR 1254 (10%), Method: PREINCUBATION): inactive; negative; mutagenic call (Test System: AMES SALMONELLA TYPHIMURIUM, Strain/Indicator: TA100, Metabolic Activation: HAMSTER, LIVER, S-9, AROCLOR 1254 (10%), Method: PREINCUBATION): inactive; negative; mutagenic call [7]: inactive; negative; mutagenic call (Test System: AMES SALMONELLA TYPHIMURIUM, Strain/Indicator: TA100, Metabolic Activation: RAT, LIVER, S-9, AROCLOR 1254 (10%), Method: PREINCUBATION): inactive; negative; mutagenic call (Test System: AMES SALMONELLA TYPHIMURIUM, Strain/Indicator: TA1535, Metabolic Activation: HAMSTER, LIVER, S-9, AROCLOR 1254 (10%), Method: PREINCUBATION): active; positive; mutagenic call [3]: inactive; negative; mutagenic call (Test System: AMES SALMONELLA TYPHIMURIUM, Strain/Indicator: TA1535, Metabolic Activation: RAT, LIVER, S-9, AROCLOR 1254 (10%), Method: PREINCUBATION): active; positive
